Data as given in patent US9840501B2, “Morpholin-pyridine derivatives” (Hoffmann-La Roche Inc., priority 2014, dated 2017).

What was measured:
[1] = molecular target: mouse TAAR1 (Mus musculus (Mouse), UniProt Q923Y8); assay: Radioligand binding assay on mouse TAAR1; conditions: mouse TAAR1, membranes of stably transfected HEK-293 cells; first value of the pair; read-out: Ki (μM) mouse/rat: mouse
Method in brief: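 Membranes from HEK293 cells stably expressing mouse TAAR1, in 20 mM HEPES-NaOH pH 7.4 with 0.1 mM EDTA, incubated 1 h at 4 °C with ^3[H]-(S)-4-[(ethyl-phenyl-amino)-methyl]-4,5-dihydro-oxazol-2-ylamine and compounds (10 pM to 10 μM, duplicates). Nonspecific binding with 10 μM unlabeled ligand; bound radioactivity counted after filtration.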

[2] = molecular target: rat TAAR1 (Rattus norvegicus (Rat), UniProt Q923Y9); assay: Radioligand binding assay on rat TAAR1; conditions: rat TAAR1, membranes of stably transfected HEK-293 cells; second value of the pair; read-out: Ki (μM) mouse/rat: rat
Method in brief: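 Membranes from HEK293 cells stably expressing rat TAAR1, in 20 mM HEPES-NaOH pH 7.4; displacement of 3[H]-(S)-4-[(ethyl-phenyl-amino)-methyl]-4,5-dihydro-oxazol-2-ylamine, nonspecific binding with 10 μM unlabeled ligand. Compounds 10 pM to 10 μM in duplicate, 1 h at 4 °C, filtration and scintillation counting.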

Sequence of mouse TAAR1 (Q923Y8 whole entry): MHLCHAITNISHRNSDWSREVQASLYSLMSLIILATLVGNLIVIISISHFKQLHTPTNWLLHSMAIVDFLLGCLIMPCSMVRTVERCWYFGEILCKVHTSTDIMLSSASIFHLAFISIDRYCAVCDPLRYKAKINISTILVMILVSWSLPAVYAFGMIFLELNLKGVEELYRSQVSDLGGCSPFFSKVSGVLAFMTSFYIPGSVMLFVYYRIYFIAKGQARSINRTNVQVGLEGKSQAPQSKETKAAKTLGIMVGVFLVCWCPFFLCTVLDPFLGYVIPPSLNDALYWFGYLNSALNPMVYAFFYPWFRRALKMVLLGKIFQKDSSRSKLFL
Sequence of rat TAAR1 (Q923Y9 whole entry): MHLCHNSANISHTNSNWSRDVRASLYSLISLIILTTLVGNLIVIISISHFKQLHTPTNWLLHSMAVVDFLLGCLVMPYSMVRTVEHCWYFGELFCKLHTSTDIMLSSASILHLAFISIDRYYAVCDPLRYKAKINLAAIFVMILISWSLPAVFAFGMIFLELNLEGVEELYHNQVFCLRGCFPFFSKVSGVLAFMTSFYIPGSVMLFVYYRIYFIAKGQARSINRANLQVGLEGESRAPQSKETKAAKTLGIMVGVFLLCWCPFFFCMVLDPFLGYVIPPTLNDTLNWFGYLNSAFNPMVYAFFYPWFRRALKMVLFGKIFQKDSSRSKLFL

Row | SMILES | Ki [1] | Ki [2]
1 | CCc1ncc(C(=O)Nc2ccc([C@H]3CNCCO3)nc2)cn1 [Example 57, 2-Ethyl-N-[6-[(2R)-morpholin-2-yl]-3-pyridyl]pyrimidine-5-carboxamide] | 0.673 µM | 2.4 µM
2 | CC(C)c1cc(C(=O)Nc2ccc([C@H]3CNCCO3)nc2)[nH]n1 [Example 58, 3-Isopropyl-N-[6-[(2R)-morpholin-2-yl]-3-pyridyl]-1H-pyrazole-5-carboxamide] | 0.0373 µM | 0.685 µM
3 | CCCc1n[nH]c(C(=O)Nc2ccc([C@H]3CNCCO3)nc2)c1Cl [Example 59, 4-Chloro-N-[6-[(2R)-morpholin-2-yl]-3-pyridyl]-3-propyl-1H-pyrazole-5-carboxamide] | 0.0063 µM | 0.021 µM
4 | O=C(Nc1ccc([C@H]2CNCCO2)nc1)c1[nH]nc(C2CC2)c1Cl [Example 60, 4-Chloro-3-cyclopropyl-N-[6-[(2R)-morpholin-2-yl]-3-pyridyl]-1H-pyrazole-5-carboxamide] | 0.0096 µM | 0.0448 µM
5 | O=C(Nc1ccc([C@H]2CNCCO2)nc1)Nc1cccc(C(F)(F)F)c1 [Example 62, 1-[6-[(2R)-Morpholin-2-yl]-3-pyridyl]-3-[3-(trifluoromethyl)phenyl]urea] | 0.0035 µM | 0.0077 µM
6 | O=C(Nc1ccc([C@H]2CNCCO2)nc1)c1[nH]nc(C(F)(F)F)c1Cl [Example 63, 4-Chloro-N-[6-[(2R)-morpholin-2-yl]-3-pyridyl]-3-(trifluoromethyl)-1H-pyrazole-5-carboxamide] | 0.0495 µM | 0.0613 µM
7 | Cc1n[nH]c(C(=O)Nc2ccc([C@H]3CNCCO3)nc2)c1Cl [Example 64, 4-Chloro-3-methyl-N-[6-[(2R)-morpholin-2-yl]-3-pyridyl]-1H-pyrazole-5-carboxamide] | 0.018 µM | 1.57 µM
8 | Cc1cn[nH]c1C(=O)Nc1ccc([C@H]2CNCCO2)nc1 [Example 65, 4-Methyl-N-[6-[(2R)-morpholin-2-yl]-3-pyridyl]-1H-pyrazole-5-carboxamide] | 0.344 µM | 4.47 µM
9 | CCc1n[nH]c(C(=O)Nc2ccc([C@H]3CNCCO3)nc2)c1C [Example 66, (R)-3-Ethyl-4-methyl-N-(6-(morpholin-2-yl)pyridin-3-yl)-1H-pyrazole-5-carboxamide] | 0.0113 µM | 0.0534 µM
10 | CCc1n[nH]c(C(=O)Nc2ccc([C@@H]3CNCCO3)nc2)c1C [Example 67, (S)-3-Ethyl-4-methyl-N-(6-(morpholin-2-yl)pyridin-3-yl)-1H-pyrazole-5-carboxamide] | 0.0147 µM | 0.27 µM
11 | Cc1cc(C(=O)Nc2ccc([C@H]3CNCCO3)nc2)nc(C(F)(F)F)n1 [Example 68, (R)-6-Methyl-N-(6-(morpholin-2-yl)pyridin-3-yl)-2-(trifluoromethyl)pyrimidine-4-carboxamide] | 0.0731 µM | 0.0469 µM
12 | Cc1cc(C(=O)Nc2ccc([C@@H]3CNCCO3)nc2)nc(C(F)(F)F)n1 [Example 69, (S)-6-Methyl-N-(6-(morpholin-2-yl)pyridin-3-yl)-2-(trifluoromethyl)pyrimidine-4-carboxamide] | 0.0762 µM | 0.0512 µM
13 | CCc1n[nH]c(C(=O)Nc2ccc([C@@H]3CNCCO3)nc2)c1Cl [Example 76, 4-Chloro-3-ethyl-N-[6-[(2S)-morpholin-2-yl]-3-pyridyl]-1H-pyrazole-5-carboxamide] | 0.0063 µM | 0.0384 µM
14 | CCc1n[nH]c(C(=O)Nc2ccc([C@@H]3CNCCO3)nc2)c1F [Example 77, 3-Ethyl-4-fluoro-N-[6-[(2S)-morpholin-2-yl]-3-pyridyl]-1H-pyrazole-5-carboxamide] | 0.0121 µM | 0.302 µM
15 | CCc1n[nH]c(C(=O)Nc2ccc([C@@H]3CNCCO3)nc2)c1Br [Example 78, 4-Bromo-3-ethyl-N-[6-[(2S)-morpholin-2-yl]-3-pyridyl]-1H-pyrazole-5-carboxamide] | 0.0056 µM | 0.041 µM
16 | CCCc1n[nH]c(C(=O)Nc2ccc([C@@H]3CNCCO3)nc2)c1F [Example 79, 4-Fluoro-N-[6-[(2S)-morpholin-2-yl]-3-pyridyl]-3-propyl-1H-pyrazole-5-carboxamide] | 0.0074 µM | 0.0568 µM
17 | O=C(Nc1ccc([C@@H]2CNCCO2)nc1)c1[nH]nc(C2CC2)c1F [Example 80, 3-Cyclopropyl-4-fluoro-N-[6-[(2S)-morpholin-2-yl]-3-pyridyl]-1H-pyrazole-5-carboxamide] | 0.0065 µM | 0.0856 µM
18 | O=C(Nc1ccc([C@@H]2CNCCO2)nc1)c1[nH]nc(C2CC2)c1Br [Example 81, 4-Bromo-3-cyclopropyl-N-[6-[(2S)-morpholin-2-yl]-3-pyridyl]-1H-pyrazole-5-carboxamide] | 0.006 µM | 0.0152 µM

Row | SMILES | Ki [1] | Ki [2]
19 | CCc1n[nH]c(C(=O)Nc2ccc([C@H]3CNCCO3)nc2)c1Cl [Example 82, 4-Chloro-3-ethyl-N-[6-[(2R)-morpholin-2-yl]-3-pyridyl]-1H-pyrazole-5-carboxamide] | 0.0039 µM | 0.0925 µM
20 | CCc1n[nH]c(C(=O)Nc2ccc([C@H]3CNCCO3)nc2)c1F [Example 83, 3-Ethyl-4-fluoro-N-[6-[(2R)-morpholin-2-yl]-3-pyridyl]-1H-pyrazole-5-carboxamide] | 0.0083 µM | 0.757 µM
21 | CCc1n[nH]c(C(=O)Nc2ccc([C@H]3CNCCO3)nc2)c1Br [Example 84, 4-Bromo-3-ethyl-N-[6-[(2R)-morpholin-2-yl]-3-pyridyl]-1H-pyrazole-5-carboxamide] | 0.0063 µM | 0.0685 µM
22 | CCCc1n[nH]c(C(=O)Nc2ccc([C@H]3CNCCO3)nc2)c1F [Example 85, 4-Fluoro-N-[6-[(2R)-morpholin-2-yl]-3-pyridyl]-3-propyl-1H-pyrazole-5-carboxamide] | 0.0046 µM | 0.15 µM
23 | O=C(Nc1ccc([C@H]2CNCCO2)nc1)c1[nH]nc(C2CC2)c1F [Example 86, 3-Cyclopropyl-4-fluoro-N-[6-[(2R)-morpholin-2-yl]-3-pyridyl]-1H-pyrazole-5-carboxamide] | 0.0074 µM | 0.156 µM
24 | O=C(Nc1ccc([C@H]2CNCCO2)nc1)c1[nH]nc(C2CC2)c1Br [Example 87, 4-Bromo-3-cyclopropyl-N-[6-[(2R)-morpholin-2-yl]-3-pyridyl]-1H-pyrazole-5-carboxamide] | 0.0053 µM | 0.0291 µM
25 | CC(C)Cc1cc(C(=O)Nc2ccc([C@@H]3CNCCO3)nc2)[nH]n1 [Example 88, 3-Isobutyl-N-[6-[(2S)-morpholin-2-yl]-3-pyridyl]-1H-pyrazole-5-carboxamide] | 0.0113 µM | 0.011 µM
26 | CC(C)Cc1n[nH]c(C(=O)Nc2ccc([C@@H]3CNCCO3)nc2)c1F [Example 89, 4-Fluoro-3-isobutyl-N-[6-[(2S)-morpholin-2-yl]-3-pyridyl]-1H-pyrazole-5-carboxamide] | 0.0133 µM | 0.0297 µM
27 | CCCCc1n[nH]c(C(=O)Nc2ccc([C@@H]3CNCCO3)nc2)c1F [Example 90, 3-Butyl-4-fluoro-N-[6-[(2S)-morpholin-2-yl]-3-pyridyl]-1H-pyrazole-5-carboxamide] | 0.0038 µM | 0.0269 µM
28 | CCCCc1cc(C(=O)Nc2ccc([C@@H]3CNCCO3)nc2)[nH]n1 [Example 91, 3-Butyl-N-[6-[(2S)-morpholin-2-yl]-3-pyridyl]-1H-pyrazole-5-carboxamide] | 0.0031 µM | 0.0061 µM
29 | CC(C)c1cc(C(=O)Nc2ccc([C@@H]3CNCCO3)nc2)n(CC(F)(F)F)n1 [Example 92, 5-Isopropyl-N-[6-[(2S)-morpholin-2-yl]-3-pyridyl]-2-(2,2,2-trifluoroethyl)pyrazole-3-carboxamide] | 0.262 µM | 0.0597 µM
30 | CC(C)n1nc(OCC(F)(F)F)cc1C(=O)Nc1ccc([C@@H]2CNCCO2)nc1 [Example 93, 2-Isopropyl-N-[6-[(2S)-morpholin-2-yl]-3-pyridyl]-5-(2,2,2-trifluoroethoxy)pyrazole-3-carboxamide] | 0.0215 µM | 0.0023 µM
31 | CC(C)Cc1cc(C(=O)Nc2ccc([C@H]3CNCCO3)nc2)[nH]n1 [Example 94, 3-Isobutyl-N-[6-[(2R)-morpholin-2-yl]-3-pyridyl]-1H-pyrazole-5-carboxamide] | 0.0216 µM | 0.107 µM
32 | CC(C)Cc1n[nH]c(C(=O)Nc2ccc([C@H]3CNCCO3)nc2)c1F [Example 95, 4-Fluoro-3-isobutyl-N-[6-[(2R)-morpholin-2-yl]-3-pyridyl]-1H-pyrazole-5-carboxamide] | 0.0113 µM | 0.0534 µM
33 | CCCCc1n[nH]c(C(=O)Nc2ccc([C@H]3CNCCO3)nc2)c1F [Example 96, 3-Butyl-4-fluoro-N-[6-[(2R)-morpholin-2-yl]-3-pyridyl]-1H-pyrazole-5-carboxamide] | 0.0035 µM | 0.0554 µM
34 | CCCCc1cc(C(=O)Nc2ccc([C@H]3CNCCO3)nc2)[nH]n1 [Example 97, 3-Butyl-N-[6-[(2R)-morpholin-2-yl]-3-pyridyl]-1H-pyrazole-5-carboxamide] | 0.0043 µM | 0.0387 µM
35 | CC(C)c1cc(C(=O)Nc2ccc([C@H]3CNCCO3)nc2)n(CC(F)(F)F)n1 [Example 98, 5-Isopropyl-N-[6-[(2R)-morpholin-2-yl]-3-pyridyl]-2-(2,2,2-trifluoroethyl)pyrazole-3-carboxamide] | 0.24 µM | 0.0442 µM
36 | CC(C)n1nc(OCC(F)(F)F)cc1C(=O)Nc1ccc([C@H]2CNCCO2)nc1 [Example 99, 2-Isopropyl-N-[6-[(2R)-morpholin-2-yl]-3-pyridyl]-5-(2,2,2-trifluoroethoxy)pyrazole-3-carboxamide] | 0.0242 µM | 0.0041 µM
